Laboratory results as given in paper PMC10824666 (Nature Cancer, 2023).
Read-outs that look alike come from different tables or passages of the source. Values belong to the compound of their own block, whether it stands above or below them.

Assays:
Experiment in all cases: biochemical
Design in all cases: Eurofins DiscoverX kinase panel, competitive binding assay at 1 uM, percent of DMSO control
Settings in all cases: competitive binding, percent of DMSO control
MST2 = target: T1, MST2 (Homo sapiens, UniProt Q13188)
T1 construct: gene STK3
T1 sequence (Q13188 1-491): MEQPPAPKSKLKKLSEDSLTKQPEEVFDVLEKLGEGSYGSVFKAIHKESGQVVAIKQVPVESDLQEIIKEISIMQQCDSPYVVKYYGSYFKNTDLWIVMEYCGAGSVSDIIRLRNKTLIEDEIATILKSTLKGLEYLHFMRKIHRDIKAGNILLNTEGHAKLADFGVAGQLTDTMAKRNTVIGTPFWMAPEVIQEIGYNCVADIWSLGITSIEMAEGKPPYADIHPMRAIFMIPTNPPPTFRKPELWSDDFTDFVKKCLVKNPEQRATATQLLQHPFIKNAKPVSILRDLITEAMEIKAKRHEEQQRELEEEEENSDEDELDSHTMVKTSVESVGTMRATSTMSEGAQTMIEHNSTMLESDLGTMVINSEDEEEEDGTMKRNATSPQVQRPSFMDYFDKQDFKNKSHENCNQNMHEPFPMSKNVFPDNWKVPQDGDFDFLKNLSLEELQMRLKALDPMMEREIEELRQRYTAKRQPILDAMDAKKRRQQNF
Experimental: (§1) Extended Data Fig. 3 In vitro characterization of potent and selective KIF18A inhibitors. a, KIF18A compounds (1 µM) were assessed across a panel of kinases (n = 96) by a competitive binding assay. Graph presented as percentage of control (POC); dashed line indicates POC value of 30 (n = 1 experiment). b, Tubulin polymerization analysis. Profile of KIF18A compounds (10 µM) relative to DMSO, paclitaxel (5 µM, tubulin stabilizer), or nocodazole (5 µM, tubulin destabilizer). Graphs presented as tubulin fluorescence signal at 440 nm expressed as arbitrary units (a.u.) versus time (min) with area-under-the-curve (AUC) values (n = 1 or 3 independent experiments). c, Mitotic spindle image analysis. […] Representative images were captured with x40 objective (scale bar = 10 µm) (n = 1 experiment). d-f, KIF18A compound effects on HeLa cells. d, Cells were treated for 96 h with DMSO or KIF18A compounds at the indicated concentrations. KIF18A compound concentration-response profiles presented as count relative to the percentage of DMSO control (POC) with count EC50 values (n = 2 independent experiments in duplicate). e, KIF18A protein localization in cells after treatment for 6 hours with DMSO or AM-1882 (0.05 µM). Cells stained to detect DNA, KIF18A, and centrin-3. Representative images of mitotic cells (n = 3 per group) were captured with x60 objective (scale bar = 5 µm) and graphs of line scan measurements were obtained for DNA, KIF18A, and centrin-3 channels expressed as fluorescence intensity (a.u.) versus distance (µm) (n = 1 experiment). f, Mitotic cell fate imaging analysis. HeLa Kyoto cells co-expressing α-tubulin-EGFP and H2B-mCherry proteins released from a G1S block in media containing DMSO or AM-1882 (0.2 µM). Analysis was performed on cells entering the first mitosis (n = 40 cells per group). Graph presented as time in mitosis (h) versus mitotic cell fate, either complete cell division (CCD) or death in mitosis (DiM). Classified cells exiting mitosis by the number of daughter cells and cell death in […] We screened a small-molecule library of diverse compounds for selective inhibitors of KIF18A MT-ATPase motor activity. Two compound hits were discovered that phenocopied the effects of KIF18A KD in cells; these hits are structurally distinct from the KIF18A inhibitor BTB-1 (refs. [27],[28]). […] However, the potency of the KIF18A inhibitors was unaffected by varying ATP and MT concentrations (Extended Data Fig. 2d). This supports our proposed model in which KIF18A inhibitors occupy an allosteric pocket formed by motor helices α4 and α6 close to the motor MT-binding surface. To screen for potential off-target interactions with essential mitotic kinases, three of the KIF18A compounds were profiled against a large panel of kinases. […] We next investigated whether our KIF18A inhibitors affected tubulin polymerization in vitro in the absence of the KIF18A motor. All four KIF18A compounds had tubulin-polymerization profiles similar to that of the DMSO control and distinct from those of the paclitaxel (MT stabilizer) and nocodazole (MT destabilizer) co

TAK1 = target: T2, TAK1 (Homo sapiens, UniProt O43318)
T2 construct: gene MAP3K7
T2 sequence (O43318 1-606): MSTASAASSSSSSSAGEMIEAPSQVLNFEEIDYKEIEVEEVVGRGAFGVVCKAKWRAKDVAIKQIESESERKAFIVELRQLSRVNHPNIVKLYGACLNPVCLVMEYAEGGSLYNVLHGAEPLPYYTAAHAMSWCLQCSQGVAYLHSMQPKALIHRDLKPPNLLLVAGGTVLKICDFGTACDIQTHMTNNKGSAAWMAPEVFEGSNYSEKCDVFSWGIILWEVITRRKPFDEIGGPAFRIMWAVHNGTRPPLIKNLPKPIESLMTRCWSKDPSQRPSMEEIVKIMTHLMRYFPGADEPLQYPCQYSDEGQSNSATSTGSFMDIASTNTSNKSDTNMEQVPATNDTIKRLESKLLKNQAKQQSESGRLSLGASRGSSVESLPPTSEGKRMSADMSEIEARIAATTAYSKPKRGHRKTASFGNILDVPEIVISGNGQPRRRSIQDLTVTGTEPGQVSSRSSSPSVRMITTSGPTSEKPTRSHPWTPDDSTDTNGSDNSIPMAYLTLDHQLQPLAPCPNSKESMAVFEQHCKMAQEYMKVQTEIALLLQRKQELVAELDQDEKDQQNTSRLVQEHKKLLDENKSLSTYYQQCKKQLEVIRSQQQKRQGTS
Experimental: as §1

OXSR1 = OXSR1 (Homo sapiens, UniProt O95747)
Experimental: as §1

[1] = read-out: Kinome Profiling performed by Eurofins DiscoverX / AM-0277, 1.0 µM / POC
[2] = read-out: Kinome Profiling performed by Eurofins DiscoverX / AM-1882, 1.0 µM / POC
[3] = read-out: Kinome Profiling performed by Eurofins DiscoverX / AM-5308, 1.0 µM / POC

Sequence of OXSR1 (O95747 whole entry): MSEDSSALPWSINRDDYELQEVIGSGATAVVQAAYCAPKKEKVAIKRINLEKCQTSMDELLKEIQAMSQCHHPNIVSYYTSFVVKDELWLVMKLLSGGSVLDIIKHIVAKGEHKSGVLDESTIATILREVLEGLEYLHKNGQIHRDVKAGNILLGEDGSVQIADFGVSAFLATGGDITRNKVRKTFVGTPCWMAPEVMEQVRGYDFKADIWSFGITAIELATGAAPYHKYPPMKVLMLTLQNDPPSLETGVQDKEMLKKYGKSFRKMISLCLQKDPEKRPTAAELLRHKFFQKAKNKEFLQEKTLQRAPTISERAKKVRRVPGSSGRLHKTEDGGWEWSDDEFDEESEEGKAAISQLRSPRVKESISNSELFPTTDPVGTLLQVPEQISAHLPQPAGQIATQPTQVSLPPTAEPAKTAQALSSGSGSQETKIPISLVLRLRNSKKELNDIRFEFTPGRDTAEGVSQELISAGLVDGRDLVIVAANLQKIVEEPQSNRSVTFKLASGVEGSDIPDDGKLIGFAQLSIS

remaining activity at 1 µM (MST2; [1]): 49%
remaining activity at 1 µM (TAK1; [1]): 100%
remaining activity at 1 µM (OXSR1; [1]): 100%
Compound: CC(C)(CO)Nc1ccc(C(=O)Nc2cccc(S(=O)(=O)C3CCCC3)c2)c(N2CCC3(CC2)CC3)n1 [AM-0277]

remaining activity at 1 µM (MST2; [2]): 91.5%
remaining activity at 1 µM (TAK1; [2]): 100%
remaining activity at 1 µM (OXSR1; [2]): 92.5%
Compound: CC(C)(C)NS(=O)(=O)c1cccc(NC(=O)c2ccc(S(=O)(=O)NC(C)(C)C)cc2N2CCC3(CC2)CC3)c1 [AM-1882]

remaining activity at 1 µM (MST2; [3]): 86.5%
remaining activity at 1 µM (TAK1; [3]): 88.5%
remaining activity at 1 µM (OXSR1; [3]): 82.5%
Compound: C[C@@H]1CN(c2cccc(NC(=O)c3ccc(NS(=O)(=O)CCO)cc3N3CCC4(CC3)CC4)n2)CCO1 [AM-5308]
